From patent US4648996A, “Phenyl substituted-2,4,6,8-nonatetraenoic acid” (Hoffmann-La Roche Inc., priority 1985, dated 1987) come the findings set out here.

Data set [1] concerns adjuvant arthritis in rats. The data set can be described thus: Chronic adjuvant arthritis test (Table I). As to conditions: for change in vivo at 75 µmol/kg / change in vivo at 96 µmol/kg / change in vivo at 60 µmol/kg / change in vivo at 76 µmol/kg: Rattus norvegicus, 552 h, day 23; for Body Weight Gain: vehicle 28-31. Type of data set: in vivo, male Charles River Lewis rats. The procedure: That the compounds of this invention are effective anti-arthritic agents can be seen from the results obtained when these compounds are administered to rats in accordance with the chronic adjuvant arthritis test system disclosed in Billingham and Davies "Handbook of Experimental Pharmacology" (editors J. R. Vane and S. H. Ferreira) Vol. 50/II, pg. 108-144, Springer-Verlag, Berlin, 1979).
In this procedure, adjuvant arthritis was induced by the subplantar injection on day 0 of 0.05 ml of adjuvant [a suspension of heat-killed, dessicated Mycobacterium butyricum, 0.5% (w/v), in heavy mineral oil containing 0.2% digitonin] into the right hind paw of male Charles River Lewis rats (120-140 g) that were housed individually and given food and water ad lib. Paw volumes (both hind paws) were measured immediately after injection of the adjuvant. Paw Volumes were also measured, to follow the development of inflammation-induced swelling in the arthritic paws, at intervals of 3 to 7 days by immersion of the paw to the level of the lateral malleolus in a mercury plethysmograph.
Drugs were administered once a day (starting on the day of adjuvant injection) by […] using Tween 80 (polyoxyethylene sorbitan mono-oleate) at a dose of 0.25 ml/100 g body weight as the vehicle. Arthritic control rats received daily doses of the vehicle only. On day 23-25, the rats were sacrificed, plasma collected and plasma fibrinogen levels determined (ammonium sulfate turbidimetric method) as described by Exner et al., Amer. J. Clin Path, 71:521-527 (1979). Anti-inflammatory activity of the test drugs were determined by comparing the extent of paw swelling (paw volume on a particular day, i.e. day four to day twenty-five, minus the paw volume on day 0) in drug-treated arthritic rats with the extent of paw swelling in the vehicle-treated arthritic rats. Drug induced decreases in the level of plasma fibrinogen, an acute phase protein that is elevated in the plasma of rats with adjuvant-induced arthritis, were also used to quantitate the anti-inflammatory activity.

Data set [2] has as its system established adjuvant arthritis in rats. The data set can be described thus: Effect on the course of established adjuvant arthritis. Type of data set: in vivo, Male Lewis rats from Charles River. The settings on record: 1 mg/kg, 7 days. The method, then:
Male Lewis rats from Charles River were used for these experiments.
Heat-killed, dessicated Mycobacteriam butyricum.
Adjuvant arthritis was induced by the injection of 0.1 ml of adjuvant [a suspension of heat-killed, dessicated Mycobacterium butyricum, 0.5% CW/V) in heavy mineral oil containing 0.2% digitonin] into the base of the tail. The arthritis was allowed to develop for 21 days and then the volume of both hind paws were measured using a mercury plethysmograph. The rats were divided into groups of 8 with equal mean paw volumes and then the rats were treated with Compound A, indomethacin (as a control drug), or vehicle for 7 days at the end of the treatment period, the volumes of both hind paws were again measured to assess antiinflammatory effects. Body weight changes were also followed and, at the end of the experiment, plasma was collected for determination of plasma fibrinogen (Exner et. al., Amer. J. Clin. Path, 71: 521-527).
^b Drugs were administered once a day for 7 days by intubation
^c Change in paw volume/body weight equals paw volume body weight on […]

The test system of data set [3] is MBSA delayed hypersensitivity in mice. The data set can be described thus: Delayed hypersensitivity to methylated bovine serum albumin (MBSA). In kind it is in vivo, Male and female MFI mice substrain E33. As to conditions: 10 mg.kg^-1 oral. The procedure: Male and female MFI mice substrain E33. Initial weight approximately 25 gm.
Dosing with vehicle and retinoid commenced on day 0 and finished on day 9.
Each group consisted of 4 male and 6 female mice (separately caged). Drugs were dosed orally at a dose volume of 10 ml.kg^-1 (10 doses).

Data set [4] concerns adjuvant arthritis in the rat. The data set can be described thus: Developing adjuvant arthritis in the rat. Type of data set: in vivo, AHH/R Female rats (PVG derived). The settings on record: 15 mg.kg^-1 p.o. The method, then:
AHH/R Female rats (PVG derived with an initial weight range of 110 to 140 g. were used.
Adjuvant for injection. An homogenized suspension of heat killed M tuberculosis (Human strains C, DT and PN), 5 mg.Ml^-1 in liquid paraffin was prepared.
Rats were randomly split into groups of five and adjuvant arthritis was induced by the sub-plantar injection of 0.1 ml of adjuvant suspension into the right hind paw of each rat. Test compounds were administered by intubation each morning commencing the day of adjuvant injection. Two groups of control rats were dosed with the vehicle as was a group of three normal rats included for comparative purposes. Dosing was carried out daily until the end of the test on day 15 except for the first weekend (days 5 & 6). Treatment groups are shown in Table III and include etretinate as standard retinoid.
Measurements of right hind paw volume were made initially and on days 2 and 4 after and adjufant injection (primary phase). Right and left hind paw volume were then measured, on day 8 and every two or three days until the end of the experiment on day 15 (secondary phase). At this time the mobility of each ankle joint and the incidence and severity of secondary lesions on nose, ears, forepaws, left hind paw and tail were also assessed in terms of degrees of flexion possible and by using an arbitrary scoring system, respectively.
The time course curves for the injected paws were integrated from days 0 to 4 to reflect primary swelling and from days 8 to 15 (secondary swelling). The secondary swelling in the non-injected paw was integrated similarly from days 8 to 15. Calculations were carried out using a specific computer program which computed mean ± se for each integrated area. The significance of differences from controls was determined by Student's t test (2 tailed) and percentage reductions from control areas were calculated. Percentage improvements in joint mobility and percentage reductions in lesion score were also determined. In the latter case the Wilcoxon rank sum test (2 tailed) was used to express the difference from the control score using raw data. Mean body weight change in each group was recorded.

For data set [5], the system named is impregnated sponge granuloma in the rat. The data set can be described thus: Impregnated sponge granuloma test in the rat. Type of data set: in vivo, AHH/R female rats (PVG derived). The method, then: AHH/R female rats (PVG derived) with an initial weight range of 120-140 g. were used.
Sponge preparation. Pellets (6.5 mm diameter) were punched from cellulose sponge cloth ("Wettex") and 0.1 ml. of a suspension containing 0.5 mg.ml^-1 of heat killed M. tuberculosis (human strains C, DT and PN) in sterile saline was applied to each pellet. The pellets were dried, weighed and autoclaved.
Rats were randomly divided into groups of five and daily dosing with test compounds was commenced. After the fifth dose the rats were anaesthetised with Sagatal (45 mg.kg^-1 i.p.) the backs were shaved and two pellets were implanted subcutaneously (one each side) into each rat through a small dorsal midline incision. The incision was closed and the rats allowed to recover from the anaesthetic.
Seven days after implantation the rats were killed and the pellets were removed, dissected free of extraneous tissue and weighed. Each pellet was then placed in a 4 ml aliquot of distilled water, chopped with fine scissors and sonicated. After centrifugation the Na^+ and K^+ content of the supernatant was determined by flame photometry. In addition the adrenal and thumus glands from each rat were dissected out and weighed and the lower hind limbs were removed for measurement of tibial bone breaking strain. Body weights were also recorded throughout the test period.
The mean ± SE for each of the parameters was calculated and differences from the control values were determined by Student's t test (2-tailed). Percentage reductions of granuloma weight, Na^+ and K^+ content and percentage changes of adrenal and thymus, weight and tibial breaking strain were determined.

Where [6] appears, read: oral 75 μMol/Kg, read-out: % Reduction in Paw Volume, Left.
Setting [7] is: oral 75 μMol/Kg, read-out: % Reduction in Paw Volume, Right.

Like-named read-outs stand apart in the source and are kept apart here.

In the case of `CCCCCCCCNc1ccccc1/C=C/C(C)=C/C=C/C(C)=C/C(=O)OCC`, the change in vivo at 75 µmol/kg in data set [1] (setting [6]) and in data set [1] (setting [7]) was -53% in each case. In addition, the “Body Weight Gain” value in data set [1] (oral 75 μMol/Kg) is recorded as “+24 g”.
Regarding `CC(/C=C/c1ccccc1OCCCCCCCCO)=C\C=C\C(C)=C\C(=O)O`, the change in vivo at 96 µmol/kg in data set [1] (oral 96 μMol/Kg, read-out: % Reduction in Paw Volume, Left) is -49%. Moreover, in data set [1] (oral 96 μMol/Kg, read-out: % Reduction in Paw Volume, Right), the change in vivo at 96 µmol/kg is -37%. Besides, in data set [1] (oral 96 μMol/Kg), the “Plasma fibrinogen % change (reduction)” value is recorded as -35% and the “Body Weight Gain” value was “+27 g”.
`CCCCCCCCCOc1ccc(OC)cc1/C=C/C(C)=C/C=C/C(C)=C/C(=O)O`: the results for the change in vivo at 75 µmol/kg in data set [1] (setting [6]) and in data set [1] (setting [7]) were -24% and -27%, respectively. In addition, the “Plasma fibrinogen % change (reduction)” value in data set [1] (oral 75 μMol/Kg) is -21%. The “Body Weight Gain” value in data set [1] (oral 75 μMol/Kg) is on record as “+27 g”.
`COc1ccc2c(c1)c(CC(=O)O)c(C)n2C(=O)c1ccc(Cl)cc1` [Indomethacin, reference compound]: the “Plasma fibrinogen % change (reduction)” value in data set [1] (oral 3 μMol/Kg) is given as -30%. In addition, in data set [2], the “Plasma Fibrinogen” value was 978 ± 100 mg/dL. For the same molecule, in data set [2] (day 28 minus day 22), the “Change in Body Weight” value is on record as 25.6 ± 3.1 g. Besides, the “Change in Paw Volume” value in data set [2] (day 28 minus day 22, both hind paws) is -1.22 ± 0.15 mL.
Consider `CC1=C(/C=C/C(C)=C/C=C/C(C)=C\C(=O)O)C(C)(C)CCC1` [reference compound], for which the change in vivo at 60 µmol/kg in data set [1] (oral 60 μMol/Kg, read-out: % Reduction in Paw Volume, Left) was -49%; in data set [1] (oral 60 μMol/Kg, read-out: % Reduction in Paw Volume, Right) it was -33%. In data set [1] (oral 60 μMol/Kg), the “Plasma fibrinogen % change (reduction)” value is -18%. In addition, the “Body Weight Gain” value in data set [1] (oral 60 μMol/Kg) is given as -7 g.
Turning to `CCOC(=O)/C=C(C)/C=C/C=C(C)/C=C/c1c(C)cc(OC)c(C)c1C` [Etretinate, reference compound], in data set [3] (10 doses), the “% increase paw volume” value is on record as 59 ± 9% and the “% reduction (cf. arachis oil control)” value is 46%. For the same molecule, in data set [3] (female (F)), the “Mean body weight change” value is recorded as -2.0 g. Further, the “Mean body weight change” value in data set [3] (male (M)) is on record as -0.8 g. Further, in data set [4], the “Body Weight Change Days 0-15” value is reported as “+1.0 g” and the “Body Weight Change Days 8-15” value is recorded as -5.0 g. Further, in data set [4] (day 15), the “Joint Mobility (% INC)” value is on record as 50% and the “Lesion Score (% RDN)” value worked out at 56%. Besides, in data set [4] (days 0-4), the “% reduction of paw swelling, Primary (right)” value turned out to be 9%. Moreover, in data set [4] (days 8-15), the “% reduction of paw swelling, Secondary (left)” value came to 67% and the “% reduction of paw swelling, Secondary (right)” value is listed as 30%. In data set [5] (15 mg.kg^-1 p.o.), the “% change in adrenal weight” value is “+22.9%”, the “% change in thymus weight” value is on record as “+15.2%”, the “% change in tibial breaking strains” value is given as -4.6% and the “% reduction of granuloma K+” value is given as -3.9%. Besides, in data set [5] (15 mg.kg^-1 p.o.), the “% reduction of granuloma Na+” value is given as 5.9%, the “% reduction of granuloma Wet weight” value is 2.7% and the “Body Weight change” value is “+13.3 ± 2.6 g”. The “rats that died under anaesthesia” value in data set [5] (15 mg.kg^-1 p.o., 2 control rats also died) was determined as 1 rat.
As for `CCCCCCCCCOc1cccc(F)c1/C=C/C(C)=C/C=C/C(C)=C/C(=O)O`, the change in vivo at 75 µmol/kg in data set [1] (setting [6]) is -68%. The change in vivo at 75 µmol/kg in data set [1] (setting [7]) was -56%. Besides, in data set [1] (oral 75 μMol/Kg), the “Plasma fibrinogen % change (reduction)” value is recorded as -51% and the “Body Weight Gain” value is listed as “+46 g”.
Regarding `CCCCCCCCCOc1cccc(Cl)c1/C=C/C(C)=C/C=C/C(C)=C/C(=O)O`, the change in vivo at 75 µmol/kg is -32% in data set [1] (setting [6]) and -29% in data set [1] (setting [7]). Moreover, the “Body Weight Gain” value in data set [1] (oral 75 μMol/Kg) is “+35 g”.
As to `C[C@@H]1C[C@H]2[C@@H]3CCC4=CC(=O)C=C[C@]4(C)[C@@]3(F)[C@@H](O)C[C@]2(C)[C@@]1(O)C(=O)CO` [Dexamethasone], in data set [5] (0.5 mg.kg^-1 sc), the “% reduction of granuloma K+” value worked out at 75.2%, the “% reduction of granuloma Na+” value is on record as 51.2% and the “% reduction of granuloma Wet weight” value worked out at 65.5%.
As to `CCCCCCCCCOc1ccccc1/C=C/C(C)=C/C=C/C(C)=C/C(=O)O` [drawing 5], in data set [1] (oral 76 μMol/Kg, read-out: % Reduction in Paw Volume, Left), the change in vivo at 76 µmol/kg was -58%. Also, in data set [1] (oral 76 μMol/Kg, read-out: % Reduction in Paw Volume, Right), the change in vivo at 76 µmol/kg is -43%. In addition, in data set [1] (oral 76 μMol/Kg), the “Plasma fibrinogen % change (reduction)” value is reported as -55% and the “Body Weight Gain” value is given as “+27 g”.
